Measurements taken from the supplement of paper PMC9780213.

Experiments:
Conditions in all cases: treatment time: 24 h
[1] = tested on: U2OS-LMNB1-TUBA1B-ACTB; assay: cell count relative to DMSO control (panel C1, DRAQ5/ER stain) (fraction of control); higher = more cells (less toxicity)
Procedure: (§1)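 U2OS-derived cells in 384-well plates were treated for 24 h with a 7-point 2-fold dilution series (top dose 20 µM for most compounds; final max DMSO 1%), then fixed, stained in four marker panels and imaged on a Cellomics ArrayScan. Cell count per treatment (three replicate plates merged) is given as a fraction of DMSO control. Panel A used parental U2OS, panel B U2OS-mOrange2-Peroxisome, panel C1 U2OS-LMNB1-TUBA1B-ACTB (DRAQ5 nuclei).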

[2] = tested on: U2OS-mOrange2-Peroxisome; assay: cell count relative to DMSO control (panel B, lysosome/peroxisome/lipid stain) (fraction of control); higher = more cells (less toxicity)
Procedure: as §1

[3] = tested on: U2OS; assay: cell count relative to DMSO control (panel A, nuclei/RNA/PMG/mitochondria stain) (fraction of control); higher = more cells (less toxicity)
Procedure: as §1

C/C1=C/C(=O)O[C@@H]2C[C@@H](CC[C@H](C)/C=C\C=C\CC1)O[C@@](O)([C@@H]1CSC(=O)N1)C2 [latrunculin-a]
cell count ([1]; 0.000781 µM): 0.337 | cell count ([1]; 0.0015625 µM): 0.521 | cell count ([1]; 0.003125 µM): 0.464 | cell count ([1]; 0.00625 µM): 0.461 | cell count ([1]; 0.0125 µM): 0.379 | cell count ([1]; 0.025 µM): 0.304 | cell count ([1]; 0.05 µM): 0.196 | cell count ([2]; 0.000781 µM): 0.66 | cell count ([2]; 0.0015625 µM): 0.625 | cell count ([2]; 0.003125 µM): 0.479 | cell count ([2]; 0.00625 µM): 0.467 | cell count ([2]; 0.0125 µM): 0.312 | cell count ([2]; 0.025 µM): 0.155 | cell count ([2]; 0.05 µM): 0.0636 | cell count ([3]; 0.000781 µM): 0.372 | cell count ([3]; 0.0015625 µM): 0.438 | cell count ([3]; 0.003125 µM): 0.369 | cell count ([3]; 0.00625 µM): 0.312 | cell count ([3]; 0.0125 µM): 0.278 | cell count ([3]; 0.025 µM): 0.194 | cell count ([3]; 0.05 µM): 0.121

O=C(CCCN1CCC(O)(c2ccc(Cl)cc2)CC1)c1ccc(F)cc1 [haloperidol]
cell count ([1]; 0.3125 µM): 1.03 | cell count ([1]; 0.625 µM): 1.05 | cell count ([1]; 1.25 µM): 1.03 | cell count ([1]; 2.5 µM): 0.979 | cell count ([1]; 5 µM): 1.05 | cell count ([1]; 10 µM): 1.11 | cell count ([1]; 20 µM): 1.05 | cell count ([2]; 0.3125 µM): 1.19 | cell count ([2]; 0.625 µM): 1.13 | cell count ([2]; 1.25 µM): 1.11 | cell count ([2]; 2.5 µM): 0.88 | cell count ([2]; 5 µM): 1.29 | cell count ([2]; 10 µM): 1.16 | cell count ([2]; 20 µM): 1.32 | cell count ([3]; 0.3125 µM): 1.02 | cell count ([3]; 0.625 µM): 0.985 | cell count ([3]; 1.25 µM): 0.893 | cell count ([3]; 2.5 µM): 0.939 | cell count ([3]; 5 µM): 0.979 | cell count ([3]; 10 µM): 1 | cell count ([3]; 20 µM): 0.956

Nc1ccn([C@@H]2O[C@H](CO)[C@@H](O)C2(F)F)c(=O)n1 [gemcitabine]
cell count ([1]; 0.3125 µM): 1.03 | cell count ([1]; 0.625 µM): 0.582 | cell count ([1]; 1.25 µM): 0.411 | cell count ([1]; 2.5 µM): 0.391 | cell count ([1]; 5 µM): 0.383 | cell count ([1]; 10 µM): 0.396 | cell count ([1]; 20 µM): 0.388 | cell count ([2]; 0.3125 µM): 0.811 | cell count ([2]; 0.625 µM): 0.529 | cell count ([2]; 1.25 µM): 0.498 | cell count ([2]; 2.5 µM): 0.576 | cell count ([2]; 5 µM): 0.543 | cell count ([2]; 10 µM): 0.595 | cell count ([2]; 20 µM): 0.496 | cell count ([3]; 0.3125 µM): 1.03 | cell count ([3]; 0.625 µM): 0.658 | cell count ([3]; 1.25 µM): 0.435 | cell count ([3]; 2.5 µM): 0.374 | cell count ([3]; 5 µM): 0.396 | cell count ([3]; 10 µM): 0.379 | cell count ([3]; 20 µM): 0.412
